{"source": "patent US10982337B2", "about": "“Corrosion inhibition” (SCHLUMBERGER TECHNOLOGY CORPORATION, priority 2015, dated 2021)", "key": {"[1]": {"test": "Corrosion weight loss test on steel coupons in HCl", "description": "Experiments were carried out with coupons of the following steels: • 22Cr125 also designated 2205, a duplex alloy steel which is an iron-chromium-nickel-molybdenum alloy, used (among other things) to fabricate casing. • HS80™ (TradeMark of TENARIS), a low carbon steel used to fabricate coiled tubing. • N80, a medium carbon steel used to fabricate borehole casing. • 13Cr80, an alloy steel containing 13 wt % chromium without nickel, also used to fabricate borehole casing.\n(1) Metal Type: Duplex Stainless Steel 22Cr125 Casing (2205 b6); 4 mol/L HCl, T=80° C., 3 Hours Exposure"}, "[2]": {"test": "Corrosion weight loss test on steel coupons in HCl", "parameters": "Pitting Index: scale not given here", "source_text": "(§1) Such “acceptable” levels of corrosion are application-specific."}, "[3]": {"test": "Corrosion weight loss test on steel coupons in HCl", "parameters": "Pitting Index: scale not given here", "source_text": "as §1", "remark": "listed apart in the source"}, "[4]": {"test": "Corrosion weight loss test on steel coupons in HCl", "parameters": "Pitting Index: scale not given here", "source_text": "as §1", "remark": "listed apart in the source"}, "[5]": {"test": "Solubility in hydrochloric acid solutions", "assay_type": "physicochemical", "details": "compared with NMTHQ", "source_text": "As a result, a surfactant is required to solubilise NTHQ for corrosion testing purposes. The surfactant used in this example is P2393, a polyoxyethylene tridecyl ether, C13H27(OCH2CH2)nOH, where n=10.\nAs a result, a surfactant is required to solubilise NTHQ for corrosion testing purposes. As for example 5 (NTHQ), the surfactant used to solubilise NCOTHQ is P2393, a polyoxyethylene tridecyl ether, C13H27(OCH2CH2)nOH, where n=10."}, "[6]": {"test": "Rotating Cylinder Electrode electrochemistry, charge transfer resistance", "details": "5 mM inhibitor, 10 mM KI, 4 mol/L HCl, 2000 rpm, 80° C.; FIG. 6", "source_text": "(§2) EIS can be used to monitor the corrosion rate of a system. The parameter of interest is the charge transfer resistance, Rct, which can be thought of the ‘resistance’ to corrosion. A metal test piece is used as the working electrode in a three-electrode electrochemical cell with the corrosive solution as electrolyte. Impedance data is obtained by applying a small alternating voltage to the working electrode and measuring the resulting current to obtain a value of impedance. This is done at a range of frequencies. Then, in order to extract the parameter of interest, the metal/inhibitor/electrolyte interfaces are modelled as an electrical equivalent circuit and the theoretical impedance is fitted to the data. […] Charge transfer resistance, Rct, is measured. Charge transfer resistance, Rct is a measure for corrosion resistance, and is inversely proportional to corrosion rate (CR). Therefore 1/Rct is proportional to CR."}, "[7]": {"test": "Rotating Cylinder Electrode electrochemistry, charge transfer resistance", "details": "5 mM inhibitor, 10 mM KI, 4 mol/L HCl, 2000 rpm, 80° C.; FIG. 6", "source_text": "as §2", "remark": "listed apart in the source"}, "[8]": {"details": "0.1542 wt % (5.13 mmol/L), KI 0, 2205 (b9), 5 mL 2-butoxyethanol in 200 mL 4 mol/L HCl"}}}
{"molecule": "c1ccc2c(c1)CCN2Cc1cccc2ccccc12", "note": "[NMI, 1-(naphthalen-1-ylmethyl)indoline]", "values": [{"measurement": "Pitting Index", "setting": "[1]; 0.1304 wt % (5.03 mmol/L), KI 0, 2205 (b9)", "result": 3}, {"measurement": "Pitting Index", "setting": "[1]; 0.1308 wt % (5.04 mmol/L) + KI 20 mmol/L, 2205 (b9)", "result": 0}]}
{"molecule": "c1ccc2c(CN3CCC[C@H]4CCCC[C@@H]43)cccc2c1", "note": "[4aR-8aS-NMDHQ]", "values": [{"measurement": "Pitting Index", "setting": "[1]; 0.3095 wt % (11.08 mmol/L), KI 0, 2205 (b8)", "result": 1}, {"measurement": "Pitting Index", "setting": "[2]; 0.3087 wt % (11.05 mmol/L), KI 0", "result": 2}, {"measurement": "Pitting Index", "setting": "[3]; 0.3098 wt % (11.09 mmol/L), KI 0", "result": 1}, {"measurement": "Pitting Index", "setting": "[4]; 0.3076 wt % (11.01 mmol/L), KI 0, 13Cr", "result": 2}]}
{"molecule": "[I-].[K+]", "note": "[KI, potassium iodide, reference compound]", "values": [{"measurement": "Pitting Index", "setting": "[1]; KI 10 mmol/L alone, no organic inhibitor, 2205 (b5)", "result": 5}, {"measurement": "Pitting Index", "setting": "[1]; KI 20 mmol/L alone, no organic inhibitor, 2205 (b5), 4 mol/L HCl, 80° C., 3 hours", "result": 5}, {"measurement": "Pitting Index", "setting": "[2]; KI 10 mmol/L alone, no NMTHQ", "result": 2}, {"measurement": "Pitting Index", "setting": "[3]; KI 10 mmol/L alone, no NMTHQ", "result": 5}, {"measurement": "Pitting Index", "setting": "[4]; KI 10 mmol/L alone, no NMTHQ", "result": 5}]}
{"molecule": "O=C(c1cccc2ccccc12)N1CCCc2ccccc21", "note": "[NCOTHQ, (3,4-dihydroquinolin-1(2H)-yl)(naphthalene-1-yl)methanone]", "values": [{"measurement": "solubility in hydrochloric acid solutions (in words)", "setting": "[5]", "result": "significantly less soluble than NMTHQ"}]}
{"molecule": "c1ccc2c(CNCCc3c[nH]c4ccccc34)cccc2c1", "note": "[HINNME, 2-(1H-indol-3-yl)-N-(naphthalene-1-ylmethyl)ethan-1-amine]", "values": [{"measurement": "Pitting Index", "setting": "[1]; 0.1500 wt % (4.99 mmol/L) + KI 20 mmol/L, 2205 (b9), 5 mL 2-butoxyethanol in 200 mL 4 mol/L HCl", "result": 0}, {"measurement": "Pitting Index", "setting": "[1]; [8]", "result": 2}]}
{"molecule": "c1ccc2ncccc2c1", "note": "[Quinoline, reference compound]", "values": [{"measurement": "Pitting Index", "setting": "[1]; 0.1421 wt % (11.00 mmol/L), 2205 b6, 4 mol/L HCl, 80° C., 3 hours", "result": 6}]}
{"molecule": "c1ccc2c(c1)CCCN2c1cccc2ccccc12", "note": "[NTHQ, 1-(naphthalen-1-yl)-1,2,3,4-tetrahydroquinoline]", "values": [{"measurement": "Pitting Index", "setting": "[1]; 11.00 mmol/L + additive P2393, 0.5 wt %, 2205 (b5)", "result": 3}, {"measurement": "Pitting Index", "setting": "[2]; 11.00 mmol/L + additive P2393, 0.5 wt %", "result": 1}, {"measurement": "solubility in hydrochloric acid solutions (in words)", "setting": "[5]", "result": "significantly less soluble than NMTHQ"}]}
{"molecule": "c1ccc2c(CN3CCOCC3)cccc2c1", "note": "[NMM, 4-(naphthalene-1-ylmethyl)morpholine]", "values": [{"measurement": "Pitting Index", "setting": "[1]; 0.1397 wt % (5.04 mmol/L) + KI 20.12 mmol/L, 2205 (b9)", "result": 2}, {"measurement": "Pitting Index", "setting": "[1]; 0.1402 wt % (5.05 mmol/L), KI 0, 2205 (b9)", "result": 5}]}
{"molecule": "c1ccc2c(c1)CCN(Cc1ccc3ccccc3c1)C2", "note": "[NMTHisoQ]", "values": [{"measurement": "Pitting Index", "setting": "[1]; 0.1366 wt % (5.00 mmol/L) + KI 20 mmol/L, 2205 (b5), 4 mol/L HCl, 80° C., 3 hours", "result": 0}, {"measurement": "Pitting Index", "setting": "[1]; 0.1367 wt % (5.00 mmol/L), KI 0, 2205 (b5), 4 mol/L HCl, 80° C., 3 hours", "result": 1}]}
{"molecule": "NCCc1cn(Cc2cccc3ccccc23)c2ccccc12", "note": "[NMHIE, 2-(1-(Naphthalene-1ylmethyl)-1H-indol-3-yl)ethan-1-amine]", "values": [{"measurement": "Pitting Index", "setting": "[1]; 0.1500 wt % (4.99 mmol/L) + KI 20 mmol/L, 2205 (b9), 0.5 wt % P2393 in 4 mol/L HCl", "result": 0}, {"measurement": "Pitting Index", "setting": "[1]; 0.1542 wt % (5.13 mmol/L), KI 0, 2205 (b9), 0.5 wt % P2393 in 4 mol/L HCl", "result": 5}, {"measurement": "Pitting Index", "setting": "[1]; [8]", "result": 3}]}
{"molecule": "c1ccc2c(CN3CCCC4CCCCC43)cccc2c1", "note": "(stereo not drawn) [NMDHQ, 1-(naphthalen-1-ylmethyl)decahydroquinoline]", "values": [{"measurement": "Pitting Index", "setting": "[1]; 0.1414 wt % (5.0 mmol/L) + KI 10 mmol/L, 2205 (b8)", "result": 0}, {"measurement": "Pitting Index", "setting": "[1]; 0.1414 wt % (5.0 mmol/L) + KI 20 mmol/L, 2205 (b8)", "result": 0}, {"measurement": "Pitting Index", "setting": "[1]; 0.3088 wt % (11.05 mmol/L), KI 0, 2205 (b8)", "result": 1}, {"measurement": "Pitting Index", "setting": "[2]; 0.3061 wt % (10.95 mmol/L), KI 0", "result": 2}, {"measurement": "Pitting Index", "setting": "[3]; 0.3068 wt % (10.98 mmol/L), KI 0", "result": 0}, {"measurement": "Pitting Index", "setting": "[4]; 0.3094 wt % (11.07 mmol/L), KI 0, 13Cr", "result": 2}]}
{"molecule": "naphthylmethylquinolinium chloride [NMQCl, reference compound]", "values": [{"measurement": "Pitting Index", "setting": "[1]; 0.123 wt % (4.03 mmol/L), 2205 b6, 4 mol/L HCl, 80° C., 3 hours", "result": 4}, {"measurement": "Pitting Index", "setting": "[1]; 0.322 wt % (10.54 mmol/L), 2205 b6, 4 mol/L HCl, 80° C., 3 hours", "result": 0}, {"measurement": "Pitting Index", "setting": "[1]; 0.612 wt % (20.00 mmol/L), 2205 b6, 4 mol/L HCl, 80° C., 3 hours", "result": 0}, {"measurement": "Pitting Index", "setting": "[2]; 0.0015 wt % (0.05 mmol/L), 4 mol/L HCl, 80° C., 3 hours", "result": 5}, {"measurement": "Pitting Index", "setting": "[2]; 0.06225 wt % (2.04 mmol/L), 4 mol/L HCl, 80° C., 3 hours", "result": 0}, {"measurement": "Pitting Index", "setting": "[2]; 0.1531 wt % (5.01 mmol/L), 4 mol/L HCl, 80° C., 3 hours", "result": 0}, {"measurement": "Pitting Index", "setting": "[2]; 0.3366 wt % (11.01 mmol/L), 4 mol/L HCl, 80° C., 3 hours", "result": 0}, {"measurement": "Pitting Index", "setting": "[3]; 0.1534 wt % (5.02 mmol/L), 4 mol/L HCl, 80° C., 3 hours", "result": 3}, {"measurement": "Pitting Index", "setting": "[3]; 0.3386 wt % (11.07 mmol/L), 4 mol/L HCl, 80° C., 3 hours", "result": 0}, {"measurement": "Pitting Index", "setting": "[3]; 0.3394 wt % (11.10 mmol/L), 4 mol/L HCl, 80° C., 3 hours", "result": 0}, {"measurement": "1/Rct (proportional to corrosion rate), NMHQ compared with NMQCl", "setting": "[6]", "result": "very similar results"}, {"measurement": "1/Rct (proportional to corrosion rate), NMHQ compared with NMQCl", "setting": "[7]", "result": "very similar results"}, {"measurement": "Pitting Index", "setting": "[4]; 0.1545 wt % (5.05 mmol/L), 4 mol/L HCl, 80° C., 3 hours", "result": 5}, {"measurement": "Pitting Index", "setting": "[4]; 0.3466 wt % (11.33 mmol/L), 4 mol/L HCl, 80° C., 3 hours", "result": 0}]}
